Data set [1] in a line: Biodistribution / PET pharmacokinetics of [124I]-zelavespib in MDA-MB-468 tumor-bearing mice (data of ref 32, refitted to exponential decay). The data set is classed as in vivo, mouse. As for the experimental part: Iodine-124 is a ‘non-residualizing’ isotope (i.e., free iodine-124 washes out from cells), and therefore, data derived from positron emission tomography imaging of MDA-MB-468-bearing mice that were administered a tracer amount of [^124I]-PU-AD can be used to determine real-time zelavespib concentrations delivered to tumors. Because positron emission tomography provides information on radioactivity and not molar concentrations, radioactivity data from Pillarsetty et al. were transformed into tumor concentrations to calculate the time-dependent zelavespib concentrations in tumors for an administered dose of 50 mg/kg. The drug concentration (in μM) in the tumor water space, [Drugtumor], at the time t post-administration is therefore: [Drugtumor]t=Drugdose·[Atumor]t/100%·1/W·1×10^6/MW µM where Drugdose is the administered drug dose (in mg), [Atumor]t is the activity concentration (in % injected dose per milliliter, %ID/mL) of the surrogate radiotracer, W is the water space of the tissue (in mL/g), MW is the molecular weight of the drug (i.e., zelavespib), and the factor 1 × 10^6 converts the concentration to μM. For the drug zelavespib and the surrogate radiotracer […] co-injected in a ratio of ~1 to 10,000, the drug itself is essentially the only significant form of the drug–surrogate combination in the tumor. Thus, for a co-administered dose of zelavespib (zelavespibdose in mg) and a tracer amount of [^124I]-PU-AD, the drug concentration in the tumor water space (using an average water space, W = 0.8 mL/g, and the molecular weight MW = 512) is: [Zelavespibtumor]t=Zelavespibdose · [Atumor]t/100%·2.44×10^3 µM
To study the zelavespib–epichaperome interaction in vivo, we selected, for simplicity, an epichaperome-positive tumor model (e.g., subcutaneously xenografted MDA-MB-468 tumors in mice). Using whole-body PET imaging after the injection of ^124I-labeled zelavespib, Pillarsetty et al. reported drug presence in MDA-MB-468 tumors up to 120 h post-single dose administration (~T1/2 = 60 h). Conversely, zelavespib was no longer observed in non-disease, non-metabolizing tissues after ~8 h, clearing rapidly from plasma, paralleled by a similar rapid clearance from normal tissues (i.e., chaperone-positive but epichaperome-negative). In these tumors, a clear relationship between tumor retention, pharmacodynamic effects, and anti-tumor activity was observed, supporting the notion that zelavespib was in residence with its target over the time it resided in these tumors.
These values are very much in agreement with those reported for zelavespib in human patients. […] Contrasting plasma and normal tissues and organs, the distribution of zelavespib in tumors was best fitted using a bi-exponential model. […] The first phase thus reflects the clearance of systemic agent, while the second is attributable to specific tumor retention.
Figure 1 Biodistribution of zelavespib in MDA-MB-468 tumor-bearing mice. (a) Biodistribution of [^124I]-Zelavespib in MDA-MB-468 tumors, organs, tissues, and plasma as per ref. [32]. Data are presented as means ± s.d., five mice per time point. Curves for blood, lung, heart, muscle, bone, and brain were fitted using a one-phase decay equation, and kinetics of zelavespib clearance were determined. Tumor curve was fitted to a two-phase exponential decay. k, kfast, and kslow are the rate constants. Half-life (T1/2) is computed as ln(2)/k. […] (b) Illustrative schematic showing the distinct binding kinetics of zelavespib to epichaperomes (slow off-rate) and to chaperone assemblies (fast off-rate). The tumor pharmacokinetics profile recorded in the Phase 2 interval may represent a direct reflection of the in vivo kinetics of target–drug unbinding. koff, kinetic rate constant for dissociation of an epichaperome-zelavespib assembly. Rt, retention time. […]

On the set-up of data set [2]: method as in PMID 31668946. The settings on record: whole-body PET imaging, mice; cited from earlier work.
Where [3] appears, read: MDA-MB-468 tumor-bearing mice, one-phase exponential decay fit of data of ref 32.
Setting [4] is: MDA-MB-468 tumor, bi-exponential fit, Phase 1: 0 to 8 h, data of ref 32.
Where [5] appears, read: MDA-MB-468 tumor, bi-exponential fit, slow terminal clearance phase, data of ref 32.

The values below come from publication PMC10604720, “Unraveling the Mechanism of Epichaperome Modulation by Zelavespib: Biochemical Insights on Target Occupancy and Extended Residence Time at the Site of Action” (Biomedicines, 2023).

`CC(C)NCCCn1c(Sc2cc3c(cc2I)OCO3)nc2c(N)ncnc21` [zelavespib]: in data set [1] (setting [3]), the “half-life (T1/2), bone” value is given as 2.84 h; the “half-life (T1/2), brain” value is on record as 2.65 h; the “half-life (T1/2), heart” value is recorded as 3.10 h; the “half-life (T1/2), lung” value was determined as 3.37 h. Also, in data set [1] (setting [3]), the “half-life (T1/2), muscle” value was 5.03 h and the “half-life (T1/2), plasma/blood” value worked out at 4.38 h. Moreover, in data set [1] (setting [4]), the “tumor Phase 1 T1/2” value stood at 2.87 h and the “tumor Phase 1 rate constant k (kfast)” value worked out at 0.241 h⁻¹. Moreover, in data set [1] (setting [5]), the “tumor Phase 2 T1/2” value amounted to 46.8 h and the “tumor Phase 2 rate constant k (kslow)” value was 0.015 h⁻¹. Also, the “T1/2 in MDA-MB-468 tumors” value in data set [2] is listed as “approximately 60 h”.
